Counter-ions that a name gives are not always drawn.
How the values were obtained:
[1] = test system: complement activation (C3a-desarg); test: in vitro complement activation, C3a-desarg measured by ELISA after Zymosan addition; type: biochemical, rat
Description: The complement activation was determined from the concentration of C3a-desarg measured by ELISA (rat C3adesARG ELISA #CL89160K; Cedarlane Laboratories Ltd., Hornby, Ontario, Canada). The C3a-desarg levels were expressed as concentrations. Venous blood was used and introduced in a lepirudin treated 5 cc syringe (50 μl lepirudin (5 mg/ml)+70 μl PBS in the syringe and needle). 0.4 ml was transferred to a 3 cc tube with 1.5 ml PD fluid with citrate additions of 0, 2, 4, 6, 8, and 10 mM, respectively, (i.e. 0, 12, 24, 36, 48, 60 μl of a citrate solution with the citrate concentration of 250 mM). Thereafter the samples were spun to remove the blood cells. 1 ml of the supernatant was transferred to a new tube, 20 μl Zymosan (20 mg/ml) was added and the tube. Thereafter EDTA was added to a final concentration of 15 mM, the Zymosan was spun down, and samples of the supernatant were used for the ELISA measurement referred to above. […] However, the upper limit of citrate, which could be present in a PD fluid, is limited by the total amount of buffer solution within the PD fluid. The amount of added citrate influence the total amount of buffer in the PD fluid since citrate also give rise to a buffer effect. Thus, the buffer used in the PD fluid has to be decreased equal to the equivalent amount of added citrate. […]

[2] = in vivo ultrafiltration volume, intraperitoneal volume by Texas Red labelled albumin dilution; conditions: 10 mM citrate in PD fluid; 2 hours after infusion; FIG. 2
Description: The lower limit of the citrate concentration is evident from FIG. 1, where a reasonable inhibited complement cascade is provided with a citrate concentration of at least 4 mM. The ultrafiltration volume was determined with the aid of a fluorescence labelled albumin. This was used as volume marker according to a recently developed technique, in which Texas Red® labelled bovine serum albumin (TR-BSA) has been used as a tracer for determinations of plasma volume. The fluorescence characteristics of TR-BSA (Molecular Probes, Eugene, Oreg., USA) solved in fresh and used PD fluid were evaluated, showing a linear relationship between fluorescence (excitation at 570 nm and emission at 615 nm) and concentration in the range of 0-20 μg/ml. By adding 1 mg/ml of unlabeled bovine serum albumin, a small difference in baseline fluorescence between the fresh and the used PD fluid was eliminated. […] In the present tests, 100 μg Texas Red® labelled bovine serum albumin and 1 mg unlabeled BSA was added to 20 ml PD fluid and intraperitoneal volumes were determined from the dilution calculated from fluorescence values of cell-free samples. The intraperitoneal volumes obtained from measurements of Texas Red® albumin after PD fluid exposure increased when citrate was added to the PD fluid, see FIG. 2. The citrate concentration used in the test of FIG. 2 was 10 mM.

## O=C(O)CC(O)(CC(=O)O)C(=O)O [citrate, tri-sodium citrate]
[1]; read from FIG. 1, lower limit of citrate in PD fluid
  citrate concentration providing a reasonable inhibited complement cascade: at least 4 mM
[1]; venous blood in PD fluid with citrate additions of 0, 2, 4, 6, 8 and 10 mM, Zymosan, FIG. 1
  C3a-desarg concentration (complement activation): decreased with increasing citrate concentration
[2]
  intraperitoneal volumes (ultrafiltration) after PD fluid exposure: increased

Reference: US8367731B2, “Peritoneal dialysis fluid” (Fresenius Medical Care Deutschland GmbH, priority 2005, dated 2013)
